Source: ChEMBL document CHEMBL4732160, “Design and synthesis of 7-O-1,2,3-triazole hesperetin derivatives to relieve inflammation of acute liver injury in mice” (Eur J Med Chem, 2021)
Activity calls are given as the source filed them. The rule behind the calls is not given here.

Legend:
RAW264.7 [1] = assay: Antiinflammatory activity in mouse RAW264.7 cells assessed as inhibition of LPS-induced TNFalpha production at 10 uM preincubated for 1 hr followed by LPS stimulation and measured after 22 hrs by ELISA; type: functional, cell-based; conditions: time 23.0 hrs
[2] = Cytotoxicity against mouse RAW264.7 cells assessed as cell viability at 40 uM measured after 24 hrs by MTT assay relative to control; type: cell-based
RAW264.7 [3] = assay: Antiinflammatory activity in mouse RAW264.7 cells assessed as inhibition of LPS-induced IL1beta production at 10 uM preincubated for 1 hr followed by LPS stimulation and measured after 22 hrs by ELISA; type: functional, cell-based; conditions: time 23.0 hrs
RAW264.7 [4] = assay: Antiinflammatory activity in mouse RAW264.7 cells assessed as inhibition of LPS-induced IL6 production at 10 uM preincubated for 1 hr followed by LPS stimulation and measured after 22 hrs by ELISA; type: functional, cell-based; conditions: time 23.0 hrs
RAW264.7 [5] = assay: Antiinflammatory activity in mouse RAW264.7 cells assessed as inhibition of LPS-induced NO production at 10 uM preincubated for 2 hrs followed by LPS stimulation and measured after 24 hrs by Griess method relative to control; type: functional; conditions: time 26 hrs
RAW264.7 [6] = assay: Antiinflammatory activity in mouse RAW264.7 cells assessed as inhibition of LPS-induced NO production preincubated for 2 hrs followed by LPS stimulation and measured after 24 hrs by Griess method; type: functional, cell-based

Row | Compound | inhibition (RAW264.7 [1]) | viability at 24 h, 40 µM [2] [%] | inhibition (RAW264.7 [3]) | inhibition (RAW264.7 [4]) | inhibition at 10 µM (RAW264.7 [5]) [%] | IC50 (RAW264.7 [6]) [µM]
1 | COc1ccc([C@@H]2CC(=O)c3c(O)cc(OCc4cn(Cc5ccccc5C#N)nn4)cc3O2)cc1O | Active | 114 | Active | Active | 43.6 | 14.6
2 | COc1ccc([C@@H]2CC(=O)c3c(O)cc(OCc4cn(CCO)nn4)cc3O2)cc1O | Active | 112 | Active | Active | 24.7 | 17.8
3 | COc1ccc([C@@H]2CC(=O)c3c(O)cc(OCc4cn(CC(=O)c5ccccc5)nn4)cc3O2)cc1O | Active | 112 | Active | Active | 32.1 | 16.9
4 | COc1ccc([C@@H]2CC(=O)c3c(O)cc(OCc4cn(Cc5ccc(C)cc5)nn4)cc3O2)cc1O | Active | 110 | Active | Active | 29.4 | 16.8
5 | COc1ccc([C@@H]2CC(=O)c3c(O)cc(OCc4cn(Cc5ccccc5F)nn4)cc3O2)cc1O | Active | 74 | Active | Active | 63.3 | 7.32
6 | COc1ccc([C@@H]2C/C(=N\O)c3c(O)cc(OCc4cn(Cc5ccccc5F)nn4)cc3O2)cc1O | Active | 82 | Active | Active | 65.4 | 5.71
7 | COc1ccc([C@@H]2CC(=O)c3c(O)cc(OCc4cn(Cc5ccccc5C(F)(F)F)nn4)cc3O2)cc1O | Active | 135 | Active | Active | 48 | 12.5
8 | COc1ccc([C@@H]2C/C(=N\O)c3c(O)cc(OCc4cn(Cc5ccccc5)nn4)cc3O2)cc1O | Active | 93 | Active | Active | 63.6 | 6.13
9 | COc1ccc([C@@H]2CC(=O)c3c(O)cc(OCc4cn(C)nn4)cc3O2)cc1O | Active | 105 | Active | Active | 40 | 15.2
10 | COc1ccc([C@@H]2CC(=O)c3c(O)cc(OCc4cn(Cc5cccc(C(F)(F)F)c5)nn4)cc3O2)cc1O | Active | 93 | Active | Active | 35.5 | 19.9
11 | COc1ccc([C@@H]2CC(=O)c3c(O)cc(OCc4cn(Cc5cccc(C)c5)nn4)cc3O2)cc1O | Active | 113 | Active | Active | 31 | 17.4
12 | COc1ccc([C@@H]2CC(=O)c3c(O)cc(OCc4cn(Cc5ccc(Cl)cc5)nn4)cc3O2)cc1O | Active | 94 | Active | Active | 29 | 17.8
13 | COc1ccc([C@@H]2C/C(=N\O)c3c(O)cc(OCc4cn(Cc5ccccc5C)nn4)cc3O2)cc1O | Active | 83 | Active | Active | 22.5 | 18
14 | C=CCn1cc(COc2cc(O)c3c(c2)O[C@H](c2ccc(OC)c(O)c2)CC3=O)nn1 | Active | 118 | Active | Active | 50.1 | 13.8
15 | COc1ccc([C@@H]2CC(=O)c3c(O)cc(OCc4cn(Cc5ccccc5C)nn4)cc3O2)cc1O | Active | 100 | Active | Active | 45.7 | 13.1
16 | COc1ccc([C@@H]2CC(=O)c3c(O)cc(OCc4cn(CCCO)nn4)cc3O2)cc1O | Active | 121 | Active | Active | 32.8 | 16.7
17 | COc1ccc([C@@H]2CC(=O)c3c(O)cc(OCc4cn(C5CCCC5)nn4)cc3O2)cc1O | Active | 110 | Active | Active | 53.8 | 10.5
18 | COc1ccc([C@@H]2CC(=O)c3c(O)cc(OCc4cn(Cc5cccc(Cl)c5)nn4)cc3O2)cc1O | Active | 120 | Active | Active | 28 | 18.2
19 | CCn1cc(COc2cc(O)c3c(c2)O[C@H](c2ccc(OC)c(O)c2)CC3=O)nn1 | Active | 106 | Active | Active | 41.4 | 15
20 | COc1ccc([C@@H]2CC(=O)c3c(O)cc(OCc4cn(Cc5ccccc5)nn4)cc3O2)cc1O | Active | 98 | Active | Active | 49.8 | 11
21 | COc1ccc([C@@H]2CC(=O)c3c(O)cc(OCc4cn(Cc5cccc(C#N)c5)nn4)cc3O2)cc1O | Active | 56 | Active | Active | 32.9 | 18
22 | Cc1ccc(-c2cc(C(F)(F)F)nn2-c2ccc(S(N)(=O)=O)cc2)cc1 [CELECOXIB] | Active | 83 | Active | Active |  | 
23 | COc1ccc([C@@H]2CC(=O)c3c(O)cc(OCc4cn(C5CCCCC5)nn4)cc3O2)cc1O | Active | 124 | Active | Active | 42.4 | 15.6
24 | C#CCOc1cc(O)c2c(c1)O[C@H](c1ccc(OC)c(O)c1)CC2=O |  |  |  |  | 35.2 | 20.9
25 | COc1ccc2c(c1)c(CC(=O)O)c(C)n2C(=O)c1ccc(Cl)cc1 [INDOMETHACIN] | Active | 87 | Active | Active |  | 
26 | COc1ccc([C@@H]2CC(=O)c3c(O)cc(OCc4cn(Cc5ccc(F)cc5)nn4)cc3O2)cc1O | Active | 101 | Active | Active | 41.4 | 15.1
27 | COc1ccc([C@@H]2CC(=O)c3c(O)cc(OCc4cn(CC(=O)c5ccc(F)cc5)nn4)cc3O2)cc1O | Active | 64 | Active | Active | 38.5 | 15.4
28 | C#CCOc1cc(O)c2c(c1)O[C@H](c1ccc(OC)c(O)c1)C/C2=N\O |  |  |  |  | 38.7 | 19.1
